Data from patent US20110039721A1, “METHOD FOR PREDICTION ABOUT CARCINOGENICITY OF SUBSTANCE IN RODENT” (Chemicals Evaluation and Research Institute, priority 2007, published 2011).

Test system: mRNA expressed from the genes (A) to (D) in rat liver
Assay: Behavior of genes (mRNA expression level, oligo-DNA microarray) in rat liver after 28-day oral administration
Assay type: in vivo
Procedure: A test solution was prepared by dissolving each of the carcinogens and the non-carcinogens shown in Tables 2 to 6 in the corresponding solvent shown in Tables 2 to 6. Each of the thus prepared test solutions and the solvents used for the preparation was administered by oral gavage to rats in each group. As the rats, male rats (F344 SPF rats) at 5 weeks of age obtained from Charles River Laboratories Japan, Inc. were used. The animals were divided into groups, each containing four individuals. The volume of the solvent administered to the vehicle control group was set to the same volume as that of the test solution administered to the carcinogen administration group or the non-carcinogen administration group. The administration of the test solution or the solvent was performed once daily for 28 days. Apiece was excised from the liver of each of the rats after a lapse of 28 days from the initiation of the administration, and the total RNA was extracted and purified.
The expression level of mRNA was compared between each of the chemical substance administration groups and the corresponding vehicle control group, and genes that satisfy the requirements described in (A) to (D) were selected, respectively.
The case where the expression level of mRNA in the carcinogen administration group or the non-carcinogen administration group is 1.5 times or more or 1/1.5 or less of the expression level of the corresponding mRNA expressed in the control group was determined to be significant. In this connection, the determination as to whether or not the change is significant was performed by taking into consideration the direction of increase or decrease in the expression level. In the case where the direction of increase or decrease is different as compared with the case where another carcinogen was administered, the change was determined to be not significant.

[1] = gene group (A), Unigene No. Rn.167075
[2] = gene group (C), Unigene No. Rn.120914

COc1ccc2c(c1)c(CC(=O)O)c(C)n2C(=O)c1ccc(Cl)cc1 [TS085, Indomethacin]
−: Behavior of gene caused by administration of chemical substance, Gene No. 4846 (gene group (A), Unigene No. Rn.144554) | Behavior of gene caused by administration of chemical substance, Gene No. 2026 [1] | Behavior of gene caused by administration of chemical substance, Gene No. 4218 [1] | Behavior of gene caused by administration of chemical substance, Gene No. 6182 (gene group (A), Unigene No. Rn.5834) | Behavior of gene caused by administration of chemical substance, Gene No. 5600 (gene group (A), Unigene No. Rn.9836) | Behavior of gene caused by administration of chemical substance, Gene No. 1494 (gene group (B), Unigene No. Rn.1430) | Behavior of gene caused by administration of chemical substance, Gene No. 2045 (gene group (B), Unigene No. Rn.19329) | Behavior of gene caused by administration of chemical substance, Gene No. 2203 (gene group (B), Unigene No. Rn.21240) | Behavior of gene caused by administration of chemical substance, Gene No. 533 (gene group (C), Unigene No. Rn.106184) | Behavior of gene caused by administration of chemical substance, Gene No. 725 (gene group (C), Unigene No. Rn.108075) | Behavior of gene caused by administration of chemical substance, Gene No. 1163 (gene group (C), Unigene No. Rn.11766) | Behavior of gene caused by administration of chemical substance, Gene No. 4973 (gene group (C), Unigene No. Rn.118529) | Behavior of gene caused by administration of chemical substance, Gene No. 4095 (gene group (C), Unigene No. Rn.119024) | Behavior of gene caused by administration of chemical substance, Gene No. 1334 [2] | Behavior of gene caused by administration of chemical substance, Gene No. 6620 [2] | Behavior of gene caused by administration of chemical substance, Gene No. 6303 (gene group (C), Unigene No. Rn.123063) | Behavior of gene caused by administration of chemical substance, Gene No. 5878 (gene group (C), Unigene No. Rn.143213) | Behavior of gene caused by administration of chemical substance, Gene No. 1131 (gene group (C), Unigene No. Rn.144946) | Behavior of gene caused by administration of chemical substance, Gene No. 1562 (gene group (C), Unigene No. Rn.14744) | Behavior of gene caused by administration of chemical substance, Gene No. 1741 (gene group (C), Unigene No. Rn.1647) | Behavior of gene caused by administration of chemical substance, Gene No. 893 (gene group (C), Unigene No. Rn.164817) | Behavior of gene caused by administration of chemical substance, Gene No. 6026 (gene group (C), Unigene No. Rn.167685) | Behavior of gene caused by administration of chemical substance, Gene No. 154 (gene group (C), Unigene No. Rn.185941) | Behavior of gene caused by administration of chemical substance, Gene No. 1993 (gene group (C), Unigene No. Rn.18728) | Behavior of gene caused by administration of chemical substance, Gene No. 813 (gene group (C), Unigene No. Rn.201760) | Behavior of gene caused by administration of chemical substance, Gene No. 2494 (gene group (C), Unigene No. Rn.23969) | Behavior of gene caused by administration of chemical substance, Gene No. 2546 (gene group (C), Unigene No. Rn.24561) | Behavior of gene caused by administration of chemical substance, Gene No. 3776 (gene group (C), Unigene No. Rn.43232) | Behavior of gene caused by administration of chemical substance, Gene No. 3929 (gene group (C), Unigene No. Rn.4620) | Behavior of gene caused by administration of chemical substance, Gene No. 1119 (gene group (C), Unigene No. Rn.9757) | Behavior of gene caused by administration of chemical substance, Gene No. 6742 (gene group (C), Unigene No. Rn.9779) | Behavior of gene caused by administration of chemical substance, Gene No. 5634 (gene group (C), Unigene No. Rn.9862) | Behavior of gene caused by administration of chemical substance, Gene No. 5726 (gene group (D), Unigene No. Rn.9939)
